Reference: the NIST ThermoML archive (doi:10.1021/je201053v)
Numbers after ± are expanded uncertainties.

Settings: Liquid; for mass density: 293.15 K, 101.33 kPa, Vibrating tube method

Row | SMILES | mass density [kg/m3] | further results
1 | Cc1ccc(C)cc1 [1,4-dimethylbenzene] | 861.21 ± 0.91 | vapor or sublimation pressure (411.51 K): 101.33 ± 1.9 kPa
2 | Cc1ccccc1C [1,2-dimethylbenzene] | 879.68 ± 0.93 | vapor or sublimation pressure (417.58 K): 101.33 ± 1.9 kPa
3 | CCCCO [butan-1-ol] | 809.5 ± 0.24 | vapor or sublimation pressure (390.85 K): 101.33 ± 1.3 kPa
4 | CCc1ccccc1 [ethylbenzene] | 866.54 ± 0.58 | vapor or sublimation pressure (409.27 K): 101.33 ± 1.3 kPa
5 | Cc1cccc(C)c1 [1,3-dimethylbenzene] | 864.11 ± 0.91 | vapor or sublimation pressure (412.27 K): 101.33 ± 1.4 kPa
